Several values for one entry are separate records, joined by “and”; a condition that tells them apart may be missing. Equal values may be shown once. Read-outs that look alike come from different tables or passages of the source.
How the values were obtained:
CB2 receptor [1] = biological target: T1, CB2 receptor (Homo sapiens, UniProt P34972); assay: Functional cell-based CRE β-gal assay, CB2 (adenylate cyclase activity)
T1 construct: expressed in transfected cells; host or cells: SK-N-MC cells, stably transfected with pcDNA3 CB-2 (human)
Source text: (§1) The CB1 and CB2 receptors are G-protein coupled receptors (GPCR), which influence cell function via the Gi-protein. These receptors modulate the activity of intracellular adenylate cyclase, which in turn produces the intracellular signal messenger cyclic-AMP (cAMP).
(§2) At baseline, or during non-ligand bound conditions, these receptors are constitutively active and tonically suppress adenylate cyclase activity. The binding of an agonist causes further receptor activation and produces additional suppression of adenylate cyclase activity. The binding of an inverse agonist inhibits the constitutive activity of the receptors and results in an increase in adenylate cyclase activity.
(§3) By monitoring intracellular adenylate cyclase activity, the ability of compounds to act as agonists or inverse agonists can be determined.
(§4) Test compounds were evaluated in SK-N-MC cells which, using standard transfection procedures, were stably transfected with human cDNA for pcDNA3-CRE β-gal and pcDNA3 CB1 receptor (human) or pcDNA3 CB2 receptor (human). By expressing CRE β-gal, the cells produced β-galactosidase in response to CRE promoter activation by cAMP. Cells expressing CRE β-gal and either the human CB1 or CB2 receptor will produce less β-galactosidase when treated with a CB1/CB2 agonist and will produce more β-galactosidase when treated with a CB1/CB2 inverse agonist.
(§5) The cells were grown in 96-well plates under standard cell culture conditions at 37° C. in a 5% CO2 atmosphere. After 3 days, the media was removed and a test compound in media (wherein the media was supplemented with 2 mM L-glutamine, […] sodium pyruvate, 0.1% low fatty acid FBS (fetal bovine serum) and antibiotics) was added to the cell. The plates were incubated for 30 minutes at 37° C. and the plate cells were then treated with forskolin over a 4-6 hour period, then washed and lysed. The β-galactosidase activity was quantitated using commercially available kit reagents (Promega Corp. Madison, Wis.) and a Vmax Plate Reader (Molecular Devices, Inc).
For cells expressing CRE β-gal and the CB2 receptor, CB2 agonists reduced β-galactosidase activity in a dose-dependent manner and CB2 inverse agonists increase β-galactosidase activity in a dose-dependent manner.
(§6) The change in β-galactosidase activity was determined by setting a vehicle treated cell's activity value at 100% and expressing the β-galactosidase activity measured in a corresponding compound treated cell as a percent of the vehicle treated cell activity.
The EC50 value for functional activity for compounds tested was calculated by linear regression and was obtained from studies in which varying compound concentrations were used.
The value of 29% for Compound 5 represents change in functional activity and was obtained from a study in which one compound concentration was used.

human CB1 receptor [2] = biological target: T2, human CB1 receptor (Homo sapiens, UniProt P21554); assay: Functional cell-based CRE β-gal assay, CB1 (adenylate cyclase activity)
T2 construct: expressed in transfected cells; host or cells: SK-N-MC cells, stably transfected with pcDNA3 CB-1 (human)
Source text: as §1, §2, §3, §4, §5, §6
The EC50 value for functional activity for compounds tested was calculated by linear regression and was obtained from studies in which varying compound concentrations were used. Data provided for certain compounds is represented by percent change (%) in functional activity at a single test concentration: ^(1)10 μM and ^(2)1 μM.

CB2 receptor [3] = biological target: T1, CB2 receptor; assay: Binding assay for CB2 ([3H]-CP-55,940 displacement, SK-N-MC membranes)
Description: (§7) The human CB1 and CB2 receptors were stably expressed in SK-N-MC cells transfected with pcDNA3 CB-1 (human) or pcDNA3 CB-2 (human). The cells were grown in T-180 cell culture flasks under standard cell culture conditions at 37° C. in a 5% CO2 atmosphere. The cells were harvested by trysinization and homogenized in a homogenization buffer (10 mM Tris, 0.2 mM MgCl2, 5 mM KCl, with protease inhibitors aprotinin, leupeptin, pepstatin A and bacitracin) and centrifuged (2000 g). The supernatant was then centrifuged in 2M sucrose (31,300 g) to produce a semi-purified membrane pellet. The pellet was resuspended in homogenization and stored at −80° C.
(§8) On the day of the assay, the pellet was thawed on ice and diluted in assay buffer (50 mM Tris-HCl, 5 mM MgCl2, 2.5 mM EDTA, 0.5 mg/mL fatty acid free bovine serum albumin, pH 7.5). The diluted membrane pellet was added with buffer, either a test compound or vehicle standard and the radioligand [H]^3+-CP-55,940 (0.2 nM) to the wells of a 96-well polypropylene plate. Non-specific binding was measured in wells containing WIN 55,212 (10 uM). The plate was covered and incubated for 90 minutes at 30° C. The contents were then aspirated onto a Packard Unifilter GF/C filter bottom plate prewet with 0.5% polyethyleneimine. The wells of the polypropylene plate were rinsed and aspirated seven times with a 0.9% saline-0.5% Tween 20 solution. The Unifilter plate was dried, scintillation cocktail was added to each well and the counts representing binding were quantitated in a TopCount scintillation counter.
(§9) For compounds tested, an IC50 binding value was obtained from percent inhibition studies in which various test concentrations were used. The binding value was calculated by linear regression.
(§10) For compounds without an IC50 binding value, the percent inhibition (%) was obtained at a test concentration of ^(1)10 μM, ^(2)1 μM, ^(3)0.2 μM, ^(4)0.003 μM, ^(5) represents an average value.

human CB1 receptor [4] = biological target: T2, human CB1 receptor; assay: Binding assay for CB1 ([3H]-CP-55,940 displacement, SK-N-MC membranes); conditions: for IC50: Cannabinoid CB1 Receptor Binding IC50, radioligand CP-55,940 0.2 nM, SK-N-MC membranes; for inhibition at 0.2 µM: test concentration 0.2 μM (footnote 3)
Description: as §7, §8, §9, §10

[5] = read-out: CB2 receptor binding percent inhibition
[6] = test concentration 0.2 μM (footnote 3), read-out: CB2 receptor binding percent inhibition
[7] = read-out: CB1 receptor binding percent inhibition

T2 sequence (P21554 whole entry): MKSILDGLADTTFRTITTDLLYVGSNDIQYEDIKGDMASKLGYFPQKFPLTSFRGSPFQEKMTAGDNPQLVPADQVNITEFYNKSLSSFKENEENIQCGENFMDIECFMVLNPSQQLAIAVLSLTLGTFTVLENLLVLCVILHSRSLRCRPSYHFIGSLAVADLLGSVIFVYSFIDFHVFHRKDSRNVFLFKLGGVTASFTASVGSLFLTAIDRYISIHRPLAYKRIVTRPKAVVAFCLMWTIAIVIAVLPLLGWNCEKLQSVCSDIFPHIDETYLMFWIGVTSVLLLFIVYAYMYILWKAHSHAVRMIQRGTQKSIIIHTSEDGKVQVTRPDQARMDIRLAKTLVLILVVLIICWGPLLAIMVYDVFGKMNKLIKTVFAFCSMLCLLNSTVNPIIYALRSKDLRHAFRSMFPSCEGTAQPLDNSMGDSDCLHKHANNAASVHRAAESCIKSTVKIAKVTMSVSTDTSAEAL
T1 sequence (P34972 whole entry): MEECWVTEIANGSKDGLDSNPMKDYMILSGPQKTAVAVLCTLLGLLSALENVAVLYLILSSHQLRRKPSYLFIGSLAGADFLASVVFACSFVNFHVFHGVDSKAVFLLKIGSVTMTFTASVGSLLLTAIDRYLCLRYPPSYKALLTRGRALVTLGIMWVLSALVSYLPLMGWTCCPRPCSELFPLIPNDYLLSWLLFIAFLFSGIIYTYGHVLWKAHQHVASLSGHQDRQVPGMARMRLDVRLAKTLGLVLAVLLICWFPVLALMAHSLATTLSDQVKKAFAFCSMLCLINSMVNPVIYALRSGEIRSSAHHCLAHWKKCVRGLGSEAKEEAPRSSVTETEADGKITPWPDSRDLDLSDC

Row | SMILES | EC50 (CB2 receptor [1]) [nM] | EC50 (human CB1 receptor [2]) [nM] | IC50 (human CB1 receptor [4]) [nM] | inhibition at 0.2 µM (human CB1 receptor [4]; [7]) [%] | also measured
1 | O=C(N[C@H](CO)c1ccccc1)c1n[nH]c2c1CCCCC[C@@H]2Cc1cccc(Cl)c1 (relative stereo) [Cpd 24, (9R*)-(3-chloro-benzyl)-4,5,6,7,8,9-hexahydro-1H-cyclooctapyrazole-3-carboxylic acid [(1S)-2-hydroxy-1-phenyl-ethyl]-amide] | 124 | > 5000 |  |  | 
2 | O=C(N[C@H](CO)c1ccccc1)c1n[nH]c2c1CCCCC[C@H]2Cc1cccc(Cl)c1 (relative stereo) [Cpd 25, (9S*)-(3-chloro-benzyl)-4,5,6,7,8,9-hexahydro-1H-cyclooctapyrazole-3-carboxylic acid [(1S)-2-hydroxy-1-phenyl-ethyl]-amide] | 14 | > 5000 |  |  | 
3 | COC[C@H](NC(=O)c1n[nH]c2c1CCCCC[C@H]2Cc1cccc(Cl)c1)c1ccccc1 (relative stereo) [Cpd 26, (9S*)-(3-chloro-benzyl)-4,5,6,7,8,9-hexahydro-1H-cyclooctapyrazole-3-carboxylic acid [(1R)-2-methoxy-1-phenyl-ethyl]-amide] | 5 | 70 |  |  | 
4 | COC[C@H](NC(=O)c1n[nH]c2c1CCCCC[C@@H]2Cc1cccc(Cl)c1)c1ccccc1 (relative stereo) [Cpd 27, (9R*)-(3-chloro-benzyl)-4,5,6,7,8,9-hexahydro-1H-cyclooctapyrazole-3-carboxylic acid [(1R)-2-methoxy-1-phenyl-ethyl]-amide] | 26 | 43 |  |  | 
5 | O=C(N[C@@H](CO)c1ccccc1)c1n[nH]c2c1CCCCCC2Cc1cccc(Cl)c1 (stereo in doubt) [Cpd 23, (9R*)-(3-chloro-benzyl)-4,5,6,7,8,9-hexahydro-1H-cyclooctapyrazole-3-carboxylic acid [(1R)-2-hydroxy-1-phenyl-ethyl]-amide] |  |  |  |  | EC50 (CB2 receptor [1]; SK-N-MC cells, CRE β-gal, forskolin, agonist, read-out: CB2 Receptor Functional Agonist Activity EC50): 11 nM; EC50 (human CB1 receptor [2]; SK-N-MC cells, CRE β-gal, forskolin, agonist, read-out: CB1 Receptor Functional Agonist Activity EC50): 88 nM
6 | CCOC(=O)C1(NC(=O)c2nn(C3CCCCC3)c3c2CCCCCC3)CC2CCC1C2 (stereo not drawn) [Cpd 4, 2-[(1-cyclohexyl-4,5,6,7,8,9-hexahydro-1H-cyclooctapyrazole-3-carbonyl)-amino]-bicyclo[2.2.1]heptane-2-carboxylic acid ethyl ester] |  |  | 60 |  | inhibition at 0.003 µM (CB2 receptor [3]; [5]): 74%; CB1 receptor percent change in functional activity (human CB1 receptor [2]; single test concentration 1 μM (footnote 2)): ^(2)−71%
7 | CC(NC(=O)c1nn(C2CCCCC2)c2c1CCCCCC2)C12CC3CC(CC(C3)C1)C2 (stereo not drawn) [Cpd 6, 1-cyclohexyl-4,5,6,7,8,9-hexahydro-1H-cyclooctapyrazole-3-carboxylic acid (1-adamantan-1-yl-ethyl)-amide] | 29 |  | 300 |  | IC50 (CB2 receptor [3]; Cannabinoid CB2 Receptor Binding IC50, radioligand CP-55,940 0.2 nM, SK-N-MC membranes): 0.6 nM and 0.7 nM; inhibition at 1 µM (CB2 receptor [3]; [5]): 91%; inhibition at 1 µM (human CB1 receptor [4]; test concentration 1 μM (footnote 2), read-out: CB1 receptor binding percent inhibition): 86%
8 | O=C(NNc1ccc(Cl)cc1Cl)c1nn(-c2ccc(Cl)cc2Cl)c2c1CCCCC/C2=C\c1ccc(F)cc1 [Cpd 11, (9E)-1-(2,4-dichloro-phenyl)-9-(4-fluoro-benzylidene)-4,5,6,7,8,9-hexahydro-1H-cyclooctapyrazole-3-carboxylic acid N'-(2,4-dichloro-phenyl)-hydrazide] |  |  |  | 56 | inhibition at 0.2 µM (CB2 receptor [3]; [6]): 30%
9 | C[C@@H](NC(=O)c1nn(-c2ccc(Cl)cc2Cl)c2c1CCCCC/C2=C\c1ccc(F)cc1)c1ccccc1 [Cpd 12, (9E)-1-(2,4-dichloro-phenyl)-9-(4-fluoro-benzylidene)-4,5,6,7,8,9-hexahydro-1H-cyclooctapyrazole-3-carboxylic acid [(1R)-1-phenyl-ethyl]-amide] |  | 10 | 8 | 89 | inhibition at 0.2 µM (CB2 receptor [3]; [5]): 18%
10 | C[C@@H](NC(=O)c1nn(-c2ccc(Cl)cc2Cl)c2c1CCCCC/C2=C\c1ccc(F)cc1)c1ccccn1 [Cpd 13, (9E)-1-(2,4-dichloro-phenyl)-9-(4-fluoro-benzylidene)-4,5,6,7,8,9-hexahydro-1H-cyclooctapyrazole-3-carboxylic acid [(1R)-1-pyridin-2-yl-ethyl]-amide] |  | 2 | 8 | 90 | inhibition at 0.2 µM (CB2 receptor [3]; [5]): 11%
11 | O=C(c1nn(-c2ccc(Cl)cc2Cl)c2c1CCCCC/C2=C\c1ccc(F)cc1)N1CCCCC1 [Cpd 14, (9E)-[1-(2,4-dichloro-phenyl)-9-(4-fluoro-benzylidene)-4,5,6,7,8,9-hexahydro-1H-cyclooctapyrazol-3-yl]-piperidin-1-yl-methanone] |  |  |  | 50 | inhibition at 0.2 µM (CB2 receptor [3]; [6]): 28%
12 | C[C@@H](NC(=O)c1nn(-c2ccc(Cl)cc2Cl)c2c1CCCCC/C2=C\c1ccc(F)cc1)C1CCCCC1 [Cpd 17, (9E)-1-(2,4-dichloro-phenyl)-9-(4-fluoro-benzylidene)-4,5,6,7,8,9-hexahydro-1H-cyclooctapyrazole-3-carboxylic acid [(1R)-1-cyclohexyl-ethyl]-amide] |  | 40 | 10 | 86 | inhibition at 0.2 µM (CB2 receptor [3]; [5]): 25%
13 | O=C(NN1CC2CCCC2C1)c1nn(-c2ccc(Cl)cc2Cl)c2c1CCCCC/C2=C\c1ccc(F)cc1 (stereo not drawn) [Cpd 18, (9E)-1-(2,4-dichloro-phenyl)-9-(4-fluoro-benzylidene)-4,5,6,7,8,9-hexahydro-1H-cyclooctapyrazole-3-carboxylic acid (hexahydro-cyclopenta[c]pyrrol-2-yl)-amide] |  | 20 | 50 |  | 
14 | COc1ccc([C@H](C)NS(=O)(=O)/C=C/c2n[nH]c3c2CCCCCC3Cc2cccc(Cl)c2)cc1 (stereo partly drawn) [Cpd 20, (2E)-[9-(3-chloro-benzyl)-4,5,6,7,8,9-hexahydro-1H-cyclooctapyrazol-3-yl]-ethenesulfonic acid [(1S)-1-(4-methoxy-phenyl)-ethyl]-amide] | ≥ 5000 | > 5000 |  |  | 
15 | C[C@H](NS(=O)(=O)/C=C/c1n[nH]c2c1CCCCCC2Cc1cccc(Cl)c1)c1ccccc1 (stereo partly drawn) [Cpd 21, (2E)-[9-(3-chloro-benzyl)-4,5,6,7,8,9-hexahydro-1H-cyclooctapyrazol-3-yl]-ethenesulfonic acid [(1S)-1-phenyl-ethyl]-amide] | 347 | > 5000 |  |  | 
16 | O=C(NC(CO)c1ccccc1)c1n[nH]c2c1CCCCCC2Cc1cccc(Cl)c1 [Cpd 22, (9S*)-(3-chloro-benzyl)-4,5,6,7,8,9-hexahydro-1H-cyclooctapyrazole-3-carboxylic acid [(1R)-2-hydroxy-1-phenyl-ethyl]-amide] | 3 | 114 |  |  | 
